Assay results published in patent publication EP0726072A2, “Composition for the treatment of hypertension and congestive heart failure, containing an angiotensin II antagonist and an endopeptidase inhibitor” (BRISTOL-MYERS SQUIBB COMPANY, priority 1995, dated 1996).

System: cardiomyopathic hamsters
Assay: Cardiovascular effects in conscious cardiomyopathic hamsters with compensated heart failure
Type: in vivo, hamsters of the BIO TO-2 strain
Conditions: for left ventricular end diastolic pressure, effect in words / left ventricular systolic pressure, effect in words: summary of the discussion, up to 90 minutes after last treatment
Procedure: The studies described in this experiment were conducted in male hamsters of the BIO TO-2 strain when they were approximately 260 days of age and weighed on average 115 g. These animals develop a genetic form of cardiomyopathy that progresses uniformly among animals through different stages of heart failure. By 240 - 300 days of age the cardiomyopathic hamsters are characterized (as compared with control hamsters) by low mean arterial pressure, a 40% reduction in cardiac output and a decrease in renal blood flow. They display elevated cardiac filling pressure, depressed ventricular function, increased peripheral vascular resistance and have an 8-10-fold increase in plasma atrial natriuretic peptide concentration.
The experiments were conducted in conscious, unrestrained, cardiomyphathic hamsters three hours after placement of cardivascular catheters using brief anesthesia. The catheters allowed measurement of mean arterial pressure, left ventricular end diastolic pressure, left ventricular systolic pressure and heart rate, and provided a means for the administration of agents intravenously.
In this series of experiments baseline measurements of left ventricular end diastolic pressure, left ventricular systolic pressure and heart rate were determined in groups of conscious cardiomyopathic hamsters. Compounds or vehicle were administered intravenously, and measurements were repeated at 30-minute intervals up to 90 minutes after administration of the last agent. BMS 186295 was administered at 30 µmol/kg, i.v. (0.3 ml) followed by a continuous i.v. infusion at 1 µmol/kg per min (0.01 ml/min). BMS 186295 was prepared in 0.028 M potassium hydroxide and diluted to a final concentration of 0.17 M potassium hydroxide. Potassium hydroxide solution (0.17 M) was administered intravenously to the vehicle group at 0.3 ml followed by a continuous infusion at 0.01 ml/min. SQ 28603 was dissolved in 0.84% sodium bicarbonate and administered at 30 µmol/kg, i.v. This dose of SQ 28603 was previously shown to result in a doubling of plasma atrial natriuretic peptide concentration within 90 minutes in this model. One group of cardiomyopathic hamsters received the combination of BMS 186295 and SQ 28603. In this group BMS 186295 was administered according to the same dosage regimen described above; 30 minutes after the bolus injection of BMS 186295, SQ 28603 was administered at 30 µmol/kg, i.v.
Differences in age, body weight and baseline values among groups were evaluated by analysis of variance. Differences in changes from baseline among groups were evaluated by analysis of covariance with repeated measures and contrasts. The baseline value for each variable was used as the covariate. The level of significance was taken at P < 0.05. All data are expressed as mean ± standard error of the mean.

[1] = 30′, BMS 186295 30 µmol/kg i.v. + 1 µmol/kg per min, SQ 28603 30 µmol/kg i.v.
[2] = 60′, BMS 186295 30 µmol/kg i.v. + 1 µmol/kg per min, SQ 28603 30 µmol/kg i.v.
[3] = 90′, BMS 186295 30 µmol/kg i.v. + 1 µmol/kg per min, SQ 28603 30 µmol/kg i.v.
[4] = 30 minutes after last treatment, BMS 186295 30 µmol/kg i.v. + 1 µmol/kg per min, SQ 28603 30 µmol/kg i.v.
[5] = 60 minutes after last treatment, BMS 186295 30 µmol/kg i.v. + 1 µmol/kg per min, SQ 28603 30 µmol/kg i.v.
[6] = 90 minutes after last treatment, BMS 186295 30 µmol/kg i.v. + 1 µmol/kg per min, SQ 28603 30 µmol/kg i.v.
[7] = table line headed 'BMS 186295 SQ 28603', between Baseline and 30′ (time of treatment)

SMILES	Heart Rate [1] [beats/min]	Left Ventricular End Diastolic Pressure [1] [mm Hg]	Left Ventricular Systolic Pressure [1] [mm Hg]	Heart Rate [2] [beats/min]	Left Ventricular End Diastolic Pressure [2] [mm Hg]	Left Ventricular Systolic Pressure [2] [mm Hg]	Heart Rate [3] [beats/min]	Left Ventricular End Diastolic Pressure [3] [mm Hg]	Left Ventricular Systolic Pressure [3] [mm Hg]	Left Ventricular End Diastolic Pressure, Change From Baseline [4] [mm Hg]	Left Ventricular Systolic Pressure, Change From Baseline [4] [mm Hg]	Left Ventricular End Diastolic Pressure, Change From Baseline [5] [mm Hg]	Left Ventricular Systolic Pressure, Change From Baseline [5] [mm Hg]	Left Ventricular End Diastolic Pressure, Change From Baseline [6] [mm Hg]	Left Ventricular Systolic Pressure, Change From Baseline [6] [mm Hg]	Heart Rate (Baseline, before treatment) [beats/min]	Left Ventricular End Diastolic Pressure (Baseline, before treatment) [mm Hg]	Left Ventricular Systolic Pressure (Baseline, before treatment) [mm Hg]	left ventricular end diastolic pressure, effect in words	left ventricular systolic pressure, effect in words	further results
O=C(O)CCNC(=O)C(CS)Cc1ccccc1 (racemic) [SQ 28603, (±)-N-[2-(mercaptomethyl)-1-oxo-3-phenylpropyl]-β-alanine]	381 ± 9	14 ± 2	109 ± 5	366 ± 9	17 ± 3	105 ± 4	378 ± 8	16 ± 3	105 ± 5	4 ± 1	-8 ± 1	-1 ± 2	-12 ± 3	-2 ± 1	-12 ± 2	378 ± 12	18 ± 3	117 ± 5	smaller decreases	smaller decreases	Heart Rate, Change From Baseline [4]: 3 ± 8 mm Hg; Heart Rate, Change From Baseline [5]: -13 ± 12 mm Hg; Heart Rate, Change From Baseline [6]: -1 ± 9 mm Hg; Heart Rate [7]: 380 ± 7 beats/min; Left Ventricular End Diastolic Pressure [7]: 14 ± 3 mm Hg; Left Ventricular Systolic Pressure [7]: 108 ± 5 mm Hg
CCCCC1=NC2(CCCC2)C(=O)N1Cc1ccc(-c2ccccc2-c2nnn[nH]2)cc1 [BMS 186295, 2-butyl-6,7,8,9-tetrahydro-3-[[2'-(1H-tetrazol-5-yl)[1,1'-biphenyl]-4-yl]-methyl]-1,3-diazaspiro[4.4]nonan-4-one]	363 ± 20	16 ± 2	114 ± 2	367 ± 18	16 ± 2	111 ± 2	369 ± 28	18 ± 3	112 ± 5	-1 ± 1	2 ± 2	-1 ± 1	-1 ± 2	1 ± 2	1 ± 5	338 ± 16	17 ± 2	112 ± 2	no significant effects	no significant effects	Heart Rate [7]: 364 ± 14 beats/min; Left Ventricular End Diastolic Pressure [7]: 18 ± 2 mm Hg; Left Ventricular Systolic Pressure [7]: 111 ± 1 mm Hg
